Data reported in ChEMBL document CHEMBL3769344 (J Med Chem, 2016).

These molecules were tested on Influenza A virus (assay: Antiviral activity against Influenza A virus A/WSN/33(H1N1) expressing M2 proton channel S31N mutant infected in MDCK cells assessed as reduction in plaque formation preincubated for 30 mins followed by infection measured on day 2 post infection by naphthalene black dye-based assay).
Type: functional, organism-based, A/WSN/1933(H1N1)

Compared with `Oc1ccc(NC23CC4CC(CC(C4)C2)C3)c(O)c1`, `c1csc(-c2cc(NC34CC5CC(CC(C5)C3)C4)no2)c1` is 9.1-fold lower in EC50: 3.2 µM for the first, 0.353 µM for the second.

`OC12CC3CC(C1)CC(NCc1cc(-c4cccs4)on1)(C3)C2` and `COc1ccsc1-c1cc(CNC23CC4CC(CC(O)(C4)C2)C3)no1` are within 1.5-fold of each other in EC50: 0.51 µM for the first, 0.404 µM for the second.

Compared with `OC12CC3CC(O)(C1)CC(NCc1cc(-c4cccs4)on1)(C3)C2`, `OC1C2CC3CC1CC(NCc1cc(-c4cccs4)on1)(C3)C2` (configuration not stated) is 3.4-fold lower in EC50: 2.5 µM for the first, 0.727 µM for the second. The second is the more potent here.

Work on `NC12CC3CC(CC(C3)C1)C2` [AMANTADINE] yielded an EC50 of 22.5 µM.

What follows are molecules tested on Influenza A virus (assay: Antiviral activity against Influenza A virus A/WSN/33(H1N1) expressing M2 proton channel S31N mutant infected in MDCK cells assessed as plaque formation at 1 uM preincubated for 30 mins followed by infection measured on day 2 post infection by naphthalene black dye-based assay relative to control).
Type: functional, A/WSN/1933(H1N1)

Compared with `CC1(O)C2CC3CC1CC(NCc1cc(-c4cccs4)on1)(C3)C2` (configuration not stated), `c1csc(-c2cc(CNC34CC5CC(C3)C3(CO3)C(C5)C4)no2)c1` (configuration not stated) is higher in Activity: 27% for the first, 72% for the second.

Compared with `Fc1cccc(F)c1-c1cc(CNC23CC4CC(CC(C4)C2)C3)no1`, `c1coc(-c2cc(CNC34CC5CC(CC(C5)C3)C4)no2)c1` is lower in Activity: 56% for the first, 47% for the second.

Going from `O=C1C2CC3CC1CC(NCc1cc(-c4cccs4)on1)(C3)C2` to `OC1C2CC3CC1CC(NCc1cc(-c4cccs4)on1)(C3)C2` (configuration not stated), the Activity falls from 31% to 10%.

First: c1cc(-c2cc(CNC34CC5CC(CC(C5)C3)C4)no2)cs1
Second: c1ccc(-c2cc(CNC34CC5CC(CC(C5)C3)C4)no2)cc1
The Activity of the first is higher: 47% for the first, 26% for the second.

First: c1cc(-c2nc(CNC34CC5CC(CC(C5)C3)C4)no2)cs1
Second: c1csc(-c2nc(CNC34CC5CC(CC(C5)C3)C4)no2)c1
The Activity of the first is higher: 74% for the first, 66% for the second.

First: COc1cccc(-c2cc(CNC34CC5CC(CC(C5)C3)C4)no2)c1
Second: COc1ccc(-c2cc(CNC34CC5CC(CC(C5)C3)C4)no2)cc1
The Activity of the first is lower: 39% for the first, 59% for the second.

Compared with `Clc1ccccc1-c1cc(CNC23CC4CC(CC(C4)C2)C3)no1`, `Clc1ccccc1-c1nc(CNC23CC4CC(CC(C4)C2)C3)no1` is higher in Activity: 84% for the first, 88% for the second.

Compared with `CCCc1cc(CNC23CC4CC(CC(C4)C2)C3)no1`, `CC(C)c1cc(CNC23CC4CC(CC(C4)C2)C3)no1` is lower in Activity: 73% for the first, 66% for the second.

`c1c(CNC23CC4CC(CC(C4)C2)C3)noc1C1CCC1` and `c1c(CNC23CC4CC(CC(C4)C2)C3)noc1C1CC1` are the same in Activity: 42% for the first, 42% for the second.

First: c1csc(-c2nnc(CNC34CC5CC(CC(C5)C3)C4)s2)c1
Second: c1csc(-c2cc(NC34CC5CC(CC(C5)C3)C4)no2)c1
The Activity of the first is higher: 39% for the first, 32% for the second.

Compared with `COc1ccc(-c2nc(CNC34CC5CC(CC(C5)C3)C4)no2)c(OC)c1`, `COc1ccccc1-c1nc(CNC23CC4CC(CC(C4)C2)C3)no1` is lower in Activity: 76% for the first, 66% for the second.

Going from `COc1ccsc1-c1cc(CNC23CC4CC(CC(C4)C2)C3)no1` to `COc1ccsc1-c1cc(CNC23CC4CC(CC(O)(C4)C2)C3)no1`, the Activity falls from 39% to 33%.

First: OC12CC3CC(C1)CC(NCc1cc(-c4cccs4)on1)(C3)C2
Second: OC12CC3CC(O)(C1)CC(NCc1cc(-c4cccs4)on1)(C3)C2
The Activity of the first is lower: 40% for the first, 69% for the second.

First: COc1ccc(-c2nc(CNC34CC5CC(CC(C5)C3)C4)no2)cc1
Second: C(NC12CC3CC(CC(C3)C1)C2)c1noc(C2CC2)n1
The Activity of the first is higher: 92% for the first, 82% for the second.

Compared with `c1c(CNC23CC4CC(CC(C4)C2)C3)noc1C1CCCCC1`, `c1csc(-c2cc(CNC34CC5COC(CC(C5)C3)C4)no2)c1` (configuration not stated) is higher in Activity: 57% for the first, 58% for the second.
